Test results: patent US20180325933A1, “FOOD INTAKE, BODY WEIGHT AND GLUCOSE METABOLISM REGULATION BY MODULATION OF P2Y6 RECEPTOR SIGNALING” (priority 2014, published 2018)
No end group written: not given here.

What was measured:
[1] = system: wild type mice fed a normal chow diet; test: Spontaneous food intake after intracerebroventricular (ICV) administration; assay type: in vivo
Description: To explore whether UDP plays a direct role on the central regulation of feeding behavior, the effect of intracerebroventricular administration (ICV) of UDP on spontaneous food intake in wild type mice fed with a normal chow diet was measured. Therefore, mice were anesthetized using ketamine/dexmedetomidine. Guide cannulas (26 gauges) were stereotaxically inserted into the lateral ventricle (bregma −0.2 mm, midline 1.0 mm, dorsal surface −2.1 mm). Animals were allowed to recover for one week prior to experiments.
Prior to the onset of the dark phase, mice acutely received 2 μL ICV administration of UDP (1 μM, 10 μM and 30 μM; Sigma-Aldrich®), MRS 2578 (1 μM, 10 μM; Sigma-Aldrich®), or control solution (NaCl). Spontaneous food intake was measured 2 and 4 hours after ICV administration from pre-weighed portions of food dispensed from the food rack. […] UDP appears to be a strong orexigenic agent as administration of 30 μM UDP induces a 45% increase of spontaneous food intake.
FIG. 1: (A) Food intake measurement (depicted as food intake to body weight) after intracereborventricular (icv) administration of increasing doses of UDP (1 μM, 10 μM and 30 μM) or vehicle (saline) (n=26vs13vs11vs14). (B) Food intake measurement (depicted as food intake to body weight) after intracereborventricular (icv) administration of P2Y6 antagonist MRS2578 (1 μM and […]) or vehicle (saline) (n=9vs5vs5). Data are presented as mean±SEM. **p<0.01, ***p<0.001.

AgRP neurons = test: Electrophysiological recordings from AgRP-neurons; assay type: cell-based, AgRPtdTomato mice
Source text: Next the inventors aimed to further directly support the notion, that the P2Y6 agonist UDP can modulate the activity of AgRP-expressing neurons in the ARH. Therefore, the inventors performed electrophysiological recordings from transgenic mice which express red tomato protein under control of the AgRP promoter through Cre-loxP-mediated recombination in (B6; 129S6-Gt(ROSA)26Sortm9(CAG-tdTomato)Hze/J) mice (AgRPtdTomato) (FIGS. 4B and 4C). […] Collectively, these experiments indicate that orexigenic AgRP/NPY-coexpressing neurons in the ARH not only express the UDP receptor P2Y6 but that they are directly activated following UDP application both in vitro and in vivo.
Having defined that the food intake-promoting activity of UDP is mediated through P2Y6-dependent signaling, the inventors aimed to assess whether also UDP's ability to activate AgRP-neuron firing depends on functional P2Y6 signaling. To this end, the inventors performed electrophysiological recordings from genetically identified AgRP-neurons in AgRPtdTomato mice. […] Thus, not only UDP-induced activation of feeding but also UDP-stimulated activation of AgRP-neurons critically depends on functional P2Y6 signaling.
FIG. 4: (A) Confocal images and quantitative comparison of ARH cFos immunoreactive cells in NPY-GFP mice after intracerebroventricular administration of vehicle (saline) or 30 μM UDP (n=3 vs. 4). (B) Recording of an AgRPtdTomato neuron showing the increase in action potential frequency in response to the application of 3 μM UDP. […] (C) Identification of a recorded neuron by antibody staining against tdTomato (red) and a biocytin backfill of the recorded neuron (green). (D) Overall responsiveness to 3 μM UDP of the recorded AgRP neuron population (n=11 in total: 4 non-responsive neurons vs 7 responsive). (E) Quantification of action potential (AP) frequency (n=11). Grey circles mark single recordings responding with a significant increase in AP frequency, open circles are non-responsive neurons. All recordings have been conducted in synaptically isolated neurons. Scale bars: A, 50 μm; B, 100 μm and C, […] and […] in the magnifications, respectively. V3, third ventricle. Data are presented as mean±SEM, *p<0.05 (A) and as boxplots generated according to the “Tukey method” (mean: “+” median: horizontal line) (E). *p<0.05.
FIG. 6: Food intake measurement after intracerebroventricular (icv) administration of (A) vehicle (0.1% DMSO), 1 μM of the P2Y6-specific antagonist MRS […] or co-icv of 30 μM UDP and 1 μM MRS 2578 (n=10vs11vs14vs12), or (B) vehicle (0.1% DMSO), 1 μM MRS 2578, 2 μg ghrelin or co-icv of 2 μg ghrelin and 1 μM MRS 2578 (n=13vs13vs14vs14). (C) Original traces showing the action potential firing during the application of MRS 2578 and during the application of 3 μM UDP in the presence of MRS 2578. (D) Quantification of action potential frequency (AP) (n=12). Data are presented as mean±SEM, *p<0.05 (A-B) and as boxplots generated according to the “Tukey method” (mean: “+”, median: horizontal line) […]. *p<0.05, **p<0.01, ***p<0.001 as compared to vehicle or control.

P2Y6 = test: Food intake after icv UDP or ghrelin with or without P2Y6 antagonist; assay type: in vivo, mice
Source text: To further elucidate the specific contribution of P2Y6-mediated signaling in UDP-dependent activation of food intake, the inventors took a pharmacological approach.
Data are presented as mean±SEM, *p<0.05 (A-B) and as boxplots generated according to the “Tukey method” (mean: “+”, median: horizontal line) (F). *p<0.05, **p<0.01, ***p<0.001 as compared to vehicle or control.

[2] = system: P2Y1, P2Y2, P2Y4 or P2Y11 receptors; details: cited from earlier work
[3] = system: cFos immunoreactive cells in the arcuate nucleus of the hypothalamus; test: cFos immunoreactivity in the arcuate nucleus after icv administration; assay type: in vivo, C57BL/6 N mice; details: icv 30 μM UDP versus vehicle (saline)
Description: (§1) Having identified a restricted domain of P2Y6 expression in neurons of the ARH, the inventors next investigated whether intracerebroventricular (icv) application of the P2Y6 agonist UDP modulates activation of ARH neurons. To this end, C57BL/6 N control mice were implanted with icy cannulas in the lateral ventricle. Following icy administration of either vehicle (i.e. saline) or 30 μM UDP, brains were processed for immunochemistry with an antibody, which detects the immediate early gene product cFos. […] Since cFos activation can occur either directly in the respective brain area or indirectly via trans-synaptic activation of cells located in projecting areas of directly activated neurons, the inventors investigated the direct effect of UDP on its P2Y6. […] Therefore, the inventors also used pERK as a direct read-out of UDP action and the inventors assessed pERK immunoreactivity in the arcuate nucleus following icy UDP application. […]
(§2) FIG. 3: Confocal images and quantification comparison of (A) cFos- and (B) pERK-immunoreactive cells in the arcuate nucleus (ARH) of mice after intracerebroventricular administration of vehicle (saline) or 30 μM UDP (ncFos=7vs9; npERK=5vs6). […] (C) Quantification and representative immunoblots of phosphorylated and total ERK in hypothalamic cell lines after incubation with vehicle (saline) or 1 μM UDP (n=11vs12, from 3 independent experiments). […]

[4] = system: hypothalamic cell line (immortalized AgRP-neurons); test: ERK phosphorylation in hypothalamic cell line (immunoblot); assay type: cell-based; details: 1 μM UDP
Description: as §1, §2

[5] = system: pERK-positive cells in the ARH; test: pERK immunoreactivity in the arcuate nucleus after icv administration; assay type: in vivo, mice; details: icv 30 μM UDP
Description: as §1, §2

NPY-neurons in the ARH = test: cFos immunoreactivity of NPY-neurons in NPY-GFP mice after icv administration; assay type: in vivo; details: icv 30 μM UDP; 20% following vehicle
Source text: Given that the ventromedial part of the ARH mainly contains AgRP/NPY neurons, the inventors next directly investigated the specific effect of P2Y6/UDP on those neurons. The inventors addressed whether icy application of UDP specifically activates NPY/AgRP-coexpressing neurons in the ARH. The inventors therefore repeated the UDP-induced cFos experiments in mice, which express GFP under control of the neuropeptide (NPY)-promotor (NPY-GFP-mice).
FIG. 4: (A) Confocal images and quantitative comparison of ARH cFos immunoreactive cells in NPY-GFP mice after intracerebroventricular administration of vehicle (saline) or 30 μM UDP (n=3 vs. 4). (B) Recording of an AgRPtdTomato neuron showing the increase in action potential frequency in response to the application of 3 μM UDP. […] (C) Identification of a recorded neuron by antibody staining against tdTomato (red) and a biocytin backfill of the recorded neuron (green). (D) Overall responsiveness to 3 μM UDP of the recorded AgRP neuron population (n=11 in total: 4 non-responsive neurons vs 7 responsive). (E) Quantification of action potential (AP) frequency (n=11). Grey circles mark single recordings responding with a significant increase in AP frequency, open circles are non-responsive neurons. All recordings have been conducted in synaptically isolated neurons. […]

AgRPCre mice = test: Food intake with pharmacogenetic (hM4D/CNO) inhibition of AgRP cells; assay type: in vivo; details: icv 30 μM UDP
Source text: To directly assess, whether the ability of centrally applied UDP to activate feeding depends on AgRP-cell activation, the inventors investigated the effect of centrally administered UDP in mice, which allow for pharmacogenetic inhibition of AgRP cells. To this end, the inventors injected AgRPCre mice bilaterally into the ARH with an AAV, which co-expresses in a Cre-dependent manner the inhibtory DREADD-channel hM4D and mCherry.
FIG. 5: (A) Representative microphotographs of mCherry immunostainng in control and AgRP^Cre mice injected bilaterally in the arcuate nucleus (ARH) with Cre-dependent rAAV-hSyn-DIO-hM4D(Gi)-mCherry (mCherry, red; DAPI counterstaining, blue). Scale bar: 100 μm. V3, third ventricle. (B) Food intake measurement in virus-injected AgRP^Cre mice or control wild type litter mates. Mice received CNO injections (0.3 mg/kgBW) 15 minutes prior to icy administration of 30 μM UDP or vehicle (Saline) (n=6 vs 8 vs 5 vs 5). Data are presented as mean±SEM, **p<0.01, ***p<0.001 as compare to vehicle.

[6] = Serum uridine after intraperitoneal uridine; assay type: in vivo, C57BL/6 N mice; details: 50 mg/kgBW uridine i.p.
Description: (§3) To directly address whether elevation of serum uridine concentrations—as observed in obesity—can lead to increased hypothalamic UDP synthesis, the inventors next injected C57BL/6 N control animals intraperitoneally with uridine.
(§4) FIG. 9: Effects of intraperitoneal injection of uridine (50 mg/kgBW) or vehicle (saline) in C57B16/N mice on (A) serum uridine (n=4-5 per group) and on (B) hypothalamic UDP contents (n=5 per group) 60 and 90 minutes post-injection as well on (C) food intake (n=15 per group). Data are presented as mean±SEM, *p<0.05, **p<0.01, ***p<0.001.

[7] = Hypothalamic UDP content after intraperitoneal uridine; assay type: in vivo, C57BL/6 N mice; details: 50 mg/kgBW uridine i.p., 90 minutes after application
Description: as §3, §4

[8] = system: C57BL/6 N control animals; test: Food intake after intraperitoneal uridine; assay type: in vivo, C57BL/6 N mice; details: 50 mg/kgBW uridine i.p., 4 hours after application
Description: as §3, §4

Compound: S=C=Nc1cccc(NC(=S)NCCCCNC(=S)Nc2cccc(N=C=S)c2)c1 [MRS2578, 1,4-Di[3-(3-isothiocyanatophenyl)thioureido]butane]
- spontaneous food intake ([1]; ICV 2 μL MRS 2578 (1 μM, 10 μM)): decreases food intake
- effect on UDP's ability to reduce the membrane potential and activate action potential firing of AgRP-neurons (AgRP neurons; MRS 2578-preincubation, 3 μM UDP): abrogated
- action potential frequency of AgRP-neurons, antagonist alone (AgRP neurons; MRS 2578 alone): no influence on action potential frequency
- effect on ghrelin's ability to increase food intake (P2Y6; co-icv 2 μg ghrelin and 1 μM MRS 2578): no effect
- effect on UDP-induced increase of food intake (P2Y6; co-icv 30 μM UDP and 1 μM MRS 2578): completely abrogated
- food intake, antagonist alone (P2Y6; icv 1 μM MRS 2578): does not modulate food intake by itself
- selectivity for P2Y6 receptor activity versus activity at P2Y1, P2Y2, P2Y4 or P2Y11 receptors [2]: selectively blocks P2Y6 receptor activity

Compound: O=c1ccn([C@@H]2O[C@H](COP(=O)(O)OP(=O)(O)O)[C@@H](O)[C@H]2O)c(=O)[nH]1 [UDP, uridine diphosphate]
- increase of spontaneous food intake ([1]; ICV 30 μM UDP): 45%
- spontaneous food intake ([1]; ICV 2 μL, 1 μM, 10 μM and 30 μM, food intake measured 2 and 4 hours after ICV): increases food intake in a dose-dependent manner
- increase in cFos immunoreactivity in the arcuate nucleus of the hypothalamus [3]: 2.5 fold
- ERK-phosphorylation [4]: clearly increased ERK-phosphorylation
- number of pERK-positive cells in the ARH [5]: significantly increased the number of pERK-positive cells
- proportion of NPY-neurons exhibiting cFos immunoreactivity (NPY-neurons in the ARH): 60%
- action potential frequency of AgRP neurons (AgRP neurons; 3 μM UDP): increased action potential frequency
- number of responsive neurons in the recorded AgRP neuron population (AgRP neurons; 3 μM UDP, n=11 in total): 7
- proportion of AgRP-neurons sensitive to UDP (AgRP neurons; electrophysiology, 3 μM UDP): 60%
- UDP's food intake stimulatory effect (AgRPCre mice; AAV-injected AgRPCre mice, CNO-mediated inhibition of AgRP-neurons): completely abolished
- effect of AAV injection and CNO on UDP-induced food intake (AgRPCre mice; Cre-negative control animals, CNO 0.3 mg/kgBW): no effect
- increase of food intake (P2Y6; icv UDP alone): ≈ 50%

Compound: O=c1ccn([C@@H]2O[C@H](CO)[C@@H](O)[C@H]2O)c(=O)[nH]1 [uridine]
- serum uridine concentrations ([6]; 60 minutes post injection): rapid increase of serum uridine concentrations
- serum uridine concentrations ([6]; 90 minutes after injection): returned to baseline concentrations
- hypothalamic UDP content [7]: elevation of hypothalamic UDP content
- food intake [8]: increased food intake significantly

Compound: ghrelin: centrally applied ghrelin, used to increase feeding as specificity control (GSSFLSPEHQRVQQRKESKKPPAKLQPR; ends and bridges not checked; UniProt Q9UBU3 24-51, looked up)
- feeding (P2Y6; icv 2 μg ghrelin): increased feeding to comparable extend as observed upon UDP injection
